Test results: patent publication US20240293558A1, “KRAS INHIBITOR CONJUGATES” (Erasca, Inc., priority 2021, published 2024)

Columns and labels:
[1] = target: T1, KRas G12D fused to HiBiT peptide (Homo sapiens, UniProt P01116, G12D); assay: ASPC-1 HiBit assay to determine G12D degradation; assay type: cell-based; conditions: AsPC-1 HiBiT cells, 24-hour incubation; read-out: ASPC-1 HiBit DC50 (C)
T1 construct: endogenous in cells; host or cells: AsPC-1 HiBiT knock-in single clone (Cas9 RNP + ssODN)
T1 sequence (P01116 1-188 isoform P01116-2 G12D): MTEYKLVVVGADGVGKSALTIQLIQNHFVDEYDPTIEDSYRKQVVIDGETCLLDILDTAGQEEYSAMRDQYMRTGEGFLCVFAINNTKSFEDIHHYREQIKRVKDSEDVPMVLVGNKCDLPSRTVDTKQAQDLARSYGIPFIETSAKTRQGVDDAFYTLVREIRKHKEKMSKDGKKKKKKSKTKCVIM
Protocol: Compounds presented herein induce degradation of the KRas G12D (KRasG12D) upon treatment of engineered cancer cell line.
The degradation of the KRasG12D in cellular environment was measured using engineered homozygous KRasG12D AsPC-1 cell line in which KRas G12D was fused to luminescent HiBiT peptide at the N-terminal. The small (1.3 kDa) HiBiT peptide complements with high affinity to a larger (18 kDa) subunit evolved from NanoLuc (termed LgBiT). The resulting complex (i.e., reconstituted luciferase enzyme) generates bright luminescence that translates to high sensitivity (1 amol), broad dynamic range (four orders of magnitude), and rapid kinetics for real time quantitation.
To generate HiBit KRasG12D knock-in cell line, sgRNA (SEQ. ID NO: 1) and ssODN (SEQ. ID NO: 2) were designed and synthesized at GenScript.
RNP complex was generated by mixing of 100 pmol of Cas9 protein to PCR tubes containing 300 pmol sgRNA incubating the resultant complex at room temperature for 20 min. […] ssODN was added to RNP complex slowly and RNP-ssODN complex was incubated at room temperature for 10 min. RNP-ssODN complex was mixed with […] of AsPC-1 cells (1×10^6 cells total) and electroporated using Nucleofactor (Program CM-150). Cells were then incubated at ambient temperature for 5 min and transferred to a six-well plate containing 2 ml growth medium.
To select pools with the highest luminescence signal, 10^4 cells of parental AsPC-1 and transfected pools were plated in solid white 384-well tissue culture plates. 24 hours after seeding, HiBiT was detected using the Nano-Glo HiBiT Lytic Detection System (Promega) following manufacturer's instructions. Briefly, […] of Nano-Glo HiBiT Lytic Detection Reagent was added directly to the cells and mixed by inversion before recording luminescence on an Envision (Perkin-Elmer) with 0.5 s integration time.
Single clones were isolated from stable pool by limited dilution method and presence of HiBiT knock-in was verified by TA cloning and subsequent sequencing. Additionally, western blotting analysis was conducted to confirm selection of single clones with high luminescence signal.
For DC50S measurements, AsPC-1 HiBiT single clone cells were grown in RPMI 1640 medium (Invitrogen 22400-089) supplemented with 10% fetal bovine serum. Cells were seeded in 384-well tissue culture plates at a density of 7,000 cells/well and allowed to attach for 24 hours.
Test compounds were distributed directly into assay plate with the adjustment for DMSO concentration using Tecan HP D300e. For most of the experiments, the final concentration of compounds starts from 10 μM, 3-fold dilution dose response and 10 doses. […] DMSO final concentration is 1%. Each concentration of exemplary compound was tested as singleton. The negative control wells were cells with DMSO only, and the positive control wells were cells with […] inhibitor.
Following 24-hour incubation with the compounds plate and Nano-Glo® HiBiT Lytic reagents were equilibrated to room temperature. 20 μL of HiBiT Lytic reagent were added to each well. The assay plate was incubated on digital microplate shaker (350 rpm) for 20 min followed by centrifugation at 500 g for 1 min. Luminescence was recorded using Envision (Perkin-Elmer) using aperture 384-L1 with 0.1 s integration time.
HiBiT signal are used to calculate the % degradation at given compound concentration using the following formula:
% Degradation=(1−(Sample HiBiT signal−Ave Min signal)/(Ave Max signal−Ave Min signal))*100%
For DC50 calculation, the data with the hook effect were removed first and DC50S was reported using a 4-parameter fit of dose response curve using GraphPad in those cases where maximum % degradation was >50% and Minimal % degradation was <50%. The decrease in DC50 reflects that the exemplary compound led to a higher level of degradation of KRasG12D than another exemplary compound at specific timepoint of treatment of cancer cell line. […]

KRAS (WT) = target: T2, KRAS (WT) (Homo sapiens, UniProt P01116); assay: In-vitro RAS-RAF binding assay (RRB), HTRF/FRET; assay type: biochemical; conditions: Table 2, average of multiple runs of each compound; read-out: Inhibition of RAS-RAF Binding (in-vitro) KRAS (WT) IC50
T2 construct: Biotinylated KRAS protein amino acids 1-169 (produced at Erasca); made in house
T2 sequence (P01116 1-169 isoform P01116-2): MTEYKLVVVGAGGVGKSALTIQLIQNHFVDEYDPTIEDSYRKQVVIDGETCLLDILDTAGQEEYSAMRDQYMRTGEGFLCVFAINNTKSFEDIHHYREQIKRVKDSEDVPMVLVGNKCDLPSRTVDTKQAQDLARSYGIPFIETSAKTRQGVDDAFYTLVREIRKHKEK
Outline: (§1)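 Biotinylated KRAS 1-169 (streptavidin-terbium donor, 30 nM) and GST-cRAF RBD (anti-GST d2 acceptor, 30 nM) in HEPES pH 7.5, NaCl, MgCl2, DTT buffer. After compound incubation, SOS1 catalytic domain plus GTPgS drive 60 min nucleotide exchange. HTRF FRET read at equilibrium, in duplicate.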

KRAS G12D = KRAS G12D (Homo sapiens, UniProt P01116, G12D); assay: In-vitro RAS-RAF binding assay (RRB), HTRF/FRET; assay type: biochemical; parameters: Biotinylated KRAS protein amino acids 1-169 (produced at Erasca); made in house; conditions: Table 2, average of multiple runs of each compound; read-out: Inhibition of RAS-RAF Binding (in-vitro) KRAS (G12D) IC50
Sequence of KRAS G12D (P01116 1-169 isoform P01116-2 G12D): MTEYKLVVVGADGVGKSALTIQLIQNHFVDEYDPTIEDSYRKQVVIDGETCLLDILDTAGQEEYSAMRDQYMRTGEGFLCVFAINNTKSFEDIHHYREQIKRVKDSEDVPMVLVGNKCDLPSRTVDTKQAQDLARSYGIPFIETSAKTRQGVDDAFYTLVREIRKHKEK
Outline: as §1

SMILES | DC50 [1] | IC50 (KRAS (WT)) | IC50 (KRAS G12D)
C[C@H](NC(=O)[C@@H]1C[C@@H](O)CN1C(=O)[C@@H](NC(=O)CCOCCCN1CCC[C@H]1COc1nc(N2CC3CCC(C2)N3)c2cc(Cl)c(-c3ccc(F)c4sc(N)c(C#N)c34)c(F)c2n1)C(C)(C)C)c1ccc(-c2c(F)cc(F)cc2F)cc1 (single isomer, unassigned) [Example 97] | 135 nM | 30 nM | 8.6 nM
C#Cc1c(F)ccc2cc(O)cc(-c3ncc4c(N5CC6CCC(C5)N6)nc(OCCN5CCC(COc6cc(C(C(=O)N7C[C@H](O)C[C@H]7C(=O)N[C@@H](C)c7ccc(-c8scnc8C)cc7)C(C)C)on6)CC5)nc4c3F)c12 (stereo in doubt) [Example 35, (2S,4R)-1-((2R)-2-(3-((1-(2-((4-(3,8-diazabicyclo[3.2.1]octan-3-yl)-7-(8-ethynyl-7-fluoro-3-hydroxynaphthalen-1-yl)-8-fluoropyrido[4,3-d]pyrimidin-2-yl)oxy)ethyl)piperidin-4-yl)methoxy)isoxazol-5-yl)-3-methylbutanoyl)-4-hydroxy-N—((S)-1-(4-(4-methylthiazol-5-yl)phenyl)ethyl)pyrrolidine-2-carboxamide] | 467 nM | 196 nM | 12.1 nM
Cc1ncsc1-c1ccc([C@H](C)NC(=O)[C@@H]2C[C@@H](O)CN2C(=O)[C@@H](NC(=O)CCCCN2CCC[C@H]2COc2nc(N3CC4CCC(C3)N4)c3cnc(-c4cc(O)cc5cccc(F)c45)c(F)c3n2)C(C)(C)C)cc1 [Example 82, (2S,4R)-1-((2S)-2-(5-((2S)-2-(((4-(3,8-diazabicyclo[3.2.1]octan-3-yl)-8-fluoro-7-(8-fluoro-3-hydroxynaphthalen-1-yl)pyrido[4,3-d]pyrimidin-2-yl)oxy)methyl)pyrrolidin-1-yl)pentanamido)-3,3-dimethylbutanoyl)-4-hydroxy-N-((S)-1-(4-(4-methylthiazol-5-yl)phenyl)ethyl)pyrrolidine-2-carboxamide] |  | 304 nM | 8.52 nM
C[C@H](NC(=O)[C@@H]1C[C@@H](O)CN1C(=O)[C@@H](NC(=O)CCCCN1CCC[C@H]1COc1nc(N2CC3CCC(C2)N3)c2cnc(-c3cc(O)cc4cccc(F)c34)c(F)c2n1)C(C)(C)C)c1ccc(-c2ccccc2)cc1 [Example 83, (2S,4R)-1-((2S)-2-(5-((2S)-2-(((4-(3,8-diazabicyclo[3.2.1]octan-3-yl)-8-fluoro-7-(8-fluoro-3-hydroxynaphthalen-1-yl)pyrido[4,3-d]pyrimidin-2-yl)oxy)methyl)pyrrolidin-1-yl)pentanamido)-3,3-dimethylbutanoyl)-N-((S)-1-([1,1′-biphenyl]-4-yl)ethyl)-4-hydroxypyrrolidine-2-carboxamide] |  | 484 nM | 7.7 nM
Cc1ncsc1-c1ccc([C@H](C)NC(=O)[C@@H]2C[C@@H](O)CN2C(=O)[C@@H](NC(=O)CCCCN2CCC[C@H]2COc2nc(N3CC4CCC(C3)N4)c3cc(Cl)c(-c4ccc(F)c5sc(N)c(C#N)c45)c(F)c3n2)C(C)(C)C)cc1 [Example 84, (2S,4R)-1-((2S)-2-(5-((2S)-2-(((7-(2-amino-3-cyano-7-fluorobenzo[b]thiophen-4-yl)-4-(3,8-diazabicyclo[3.2.1]octan-3-yl)-6-chloro-8-fluoroquinazolin-2-yl)oxy)methyl)pyrrolidin-1-yl)pentanamido)-3,3-dimethylbutanoyl)-4-hydroxy-N-((S)-1-(4-(4-methylthiazol-5-yl)phenyl)ethyl)pyrrolidine-2-carboxamide] |  | 69 nM | 12.8 nM
C[C@H](NC(=O)[C@@H]1C[C@@H](O)CN1C(=O)[C@@H](NC(=O)CCCCN1CCC[C@H]1COc1nc(N2CC3CCC(C2)N3)c2cnc(-c3cc(O)cc4cccc(F)c34)c(F)c2n1)C(C)(C)C)c1ccc(-c2cccc(F)c2)cc1 [Example 86, (2S,4R)-1-((2S)-2-(5-((2S)-2-(((4-(3,8-diazabicyclo[3.2.1]octan-3-yl)-8-fluoro-7-(8-fluoro-3-hydroxynaphthalen-1-yl)pyrido[4,3-d]pyrimidin-2-yl)oxy)methyl)pyrrolidin-1-yl)pentanamido)-3,3-dimethylbutanoyl)-N-((S)-1-(3′-fluoro-[1,1′-biphenyl]-4-yl)ethyl)-4-hydroxypyrrolidine-2-carboxamide] |  | 568 nM | 9.05 nM
Cc1ncsc1-c1ccc([C@H](CO)NC(=O)[C@@H]2C[C@@H](O)CN2C(=O)[C@@H](NC(=O)CCCCN2CCC[C@H]2COc2nc(N3CC4CCC(C3)N4)c3cc(Cl)c(-c4ccc(F)c5sc(N)c(C#N)c45)c(F)c3n2)C(C)(C)C)cc1 [Example 88, (2S,4R)-1-((2S)-2-(5-((2S)-2-(((7-(2-amino-3-cyano-7-fluorobenzo[b]thiophen-4-yl)-4-(3,8-diazabicyclo[3.2.1]octan-3-yl)-6-chloro-8-fluoroquinazolin-2-yl)oxy)methyl)pyrrolidin-1-yl)pentanamido)-3,3-dimethylbutanoyl)-4-hydroxy-N-((R)-2-hydroxy-1-(4-(4-methylthiazol-5-yl)phenyl)ethyl)pyrrolidine-2-carboxamide] |  | 63.3 nM | 16.3 nM
Cc1ncsc1-c1ccc([C@H](C)NC(=O)[C@@H]2C[C@@H](O)CN2C(=O)[C@@H](NC(=O)CCCCN2CCC[C@H]2COc2nc(N3CC4CCC(C3)N4)c3cc(Cl)c(-c4ccc(F)c5sc(N)c(C#N)c45)c(F)c3n2)C(C)(C)C)cc1 [Example 89, (2S,4R)-1-((2S)-2-(5-((2S)-2-(((7-(2-amino-3-cyano-7-fluorobenzo[b]thiophen-4-yl)-4-(3,8-diazabicyclo[3.2.1]octan-3-yl)-6-chloro-8-fluoroquinazolin-2-yl)oxy)methyl)pyrrolidin-1-yl)pentanamido)-3,3-dimethylbutanoyl)-4-hydroxy-N-((S)-1-(4-(4-methylthiazol-5-yl)phenyl)ethyl)pyrrolidine-2-carboxamide] |  | 65.8 nM | 15.2 nM
Cc1ncsc1-c1ccc([C@H](C)NC(=O)[C@@H]2C[C@@H](O)CN2C(=O)[C@@H](NC(=O)CCCCN2CCC[C@H]2COc2nc(N3CC4CCC(C3)N4)c3cc(C(F)(F)F)c(-c4ccc(F)c5sc(N)c(C#N)c45)c(F)c3n2)C(C)(C)C)cc1 [Example 90, (2S,4R)-1-((2S)-2-(5-((2S)-2-(((7-(2-amino-3-cyano-7-fluorobenzo[b]thiophen-4-yl)-4-(3,8-diazabicyclo[3.2.1]octan-3-yl)-8-fluoro-6-(trifluoromethyl)quinazolin-2-yl)oxy)methyl)pyrrolidin-1-yl)pentanamido)-3,3-dimethylbutanoyl)-4-hydroxy-N-((S)-1-(4-(4-methylthiazol-5-yl)phenyl)ethyl)pyrrolidine-2-carboxamide] |  | 43 nM | 13 nM
